Where two headings read alike, the source gives them in different places.

The subject of test [1] is Arabidopsis seed germination and hypocotyl growth. Briefly: Arabidopsis seed germination and hypocotyl growth. The conditions noted are these: for minimal effective concentration: Arabidopsis thaliana. The test is classed as in vivo. An outline of the steps:
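Wild-type seeds germinated on ½× Murashige and Skoog medium with compound at 10 and 50 uM, or in a later series at 1, 5, 10, 25 and 50 uM. Reported value is the lowest tested concentration that inhibited germination or hypocotyl growth in wells where seeds germinated.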

In test [2] the target is T1, PYL2 (Arabidopsis thaliana, UniProt O80992).
T1 construct: 6X-His; made in house; host or cells: E. coli BL21[DE3]pLysS
T1 sequence (O80992 1-190): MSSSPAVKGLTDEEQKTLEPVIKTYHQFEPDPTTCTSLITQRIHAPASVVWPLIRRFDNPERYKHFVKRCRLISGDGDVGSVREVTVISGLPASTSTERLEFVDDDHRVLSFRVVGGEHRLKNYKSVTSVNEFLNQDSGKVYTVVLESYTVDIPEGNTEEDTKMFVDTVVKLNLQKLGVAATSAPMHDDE
T1 sequence (Q9CAJ0 23-511 partner): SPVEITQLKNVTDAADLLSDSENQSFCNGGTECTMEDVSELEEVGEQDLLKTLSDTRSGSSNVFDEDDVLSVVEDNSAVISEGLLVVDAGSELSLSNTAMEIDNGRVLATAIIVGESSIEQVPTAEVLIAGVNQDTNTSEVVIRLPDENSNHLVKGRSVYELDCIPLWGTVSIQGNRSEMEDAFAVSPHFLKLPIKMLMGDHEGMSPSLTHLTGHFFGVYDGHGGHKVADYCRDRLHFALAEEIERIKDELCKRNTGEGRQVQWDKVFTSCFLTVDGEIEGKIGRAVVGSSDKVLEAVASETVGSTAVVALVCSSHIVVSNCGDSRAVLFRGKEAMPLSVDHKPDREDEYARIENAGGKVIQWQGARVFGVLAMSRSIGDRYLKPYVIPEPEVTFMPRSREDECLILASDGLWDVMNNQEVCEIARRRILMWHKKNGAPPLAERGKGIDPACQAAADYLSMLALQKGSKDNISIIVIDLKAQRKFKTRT
In words: receptor-mediated PP2C (HAB1) inhibition in vitro assay. The conditions noted are these: for remaining activity at 50 µM: 50 uM of the test compound. The test is classed as biochemical. An outline of the steps:
(§1)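 Compounds, tested at 25 μM or 50 uM with ABA at 10 uM, were incubated with recombinant receptor and 50 nM GST-HAB1 (2:1 ratio) in MnCl2-containing Tris-OAc buffer, pH 7.9. Phosphatase activity was followed by 4-methylumbelliferyl-phosphate fluorescence.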

Test [3] concerns the target T2, PYL5 (Arabidopsis thaliana, UniProt Q9FLB1).
T2 construct: 6X-His; made in house; host or cells: E. coli BL21[DE3]pLysS
T2 sequence (Q9FLB1 1-203): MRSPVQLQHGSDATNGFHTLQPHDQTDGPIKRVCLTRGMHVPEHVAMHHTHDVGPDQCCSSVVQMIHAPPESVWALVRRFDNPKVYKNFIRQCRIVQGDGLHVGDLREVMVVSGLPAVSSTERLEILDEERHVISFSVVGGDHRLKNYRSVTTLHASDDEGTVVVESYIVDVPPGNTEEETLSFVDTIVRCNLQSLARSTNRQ
T2 sequence (Q9CAJ0 23-511 partner): T1 sequence (Q9CAJ0 23-511 partner)
The test is described as above. The test is classed as biochemical. Particulars: for remaining activity at 25 µM: compound at 25 μM, control without agonist = 100%; for PYL5 agonist potency and selectivity: compounds with cyclopropyl rings at alpha carbon; for remaining activity at 50 µM: 50 uM of the test compound. An outline of the steps: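 Fluorogenic readout: 4-methylumbelliferyl-phosphate hydrolysis by 50 nM GST-HAB1 plus 2:1 His-receptor; Tris-OAc pH 7.9, NaCl, 1 mM MnCl2, β-ME. Compounds at 25 μM or 50 uM single dose; IC50 from dose curves for selected compounds.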

Test [4] concerns the target T3, PYL3 (Arabidopsis thaliana, UniProt Q9SSM7).
T3 construct: 6X-His; made in house; host or cells: E. coli BL21[DE3]pLysS
T3 sequence (Q9SSM7 1-209): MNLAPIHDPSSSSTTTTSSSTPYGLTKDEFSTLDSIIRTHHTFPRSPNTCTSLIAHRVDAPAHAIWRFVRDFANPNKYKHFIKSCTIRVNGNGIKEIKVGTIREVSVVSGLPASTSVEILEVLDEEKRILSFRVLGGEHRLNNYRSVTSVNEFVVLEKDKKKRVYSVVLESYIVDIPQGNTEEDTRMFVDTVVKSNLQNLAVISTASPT
T3 sequence (Q9CAJ0 23-511 partner): T1 sequence (Q9CAJ0 23-511 partner)
The test is described as above. In kind it is biochemical. The conditions noted are these: for remaining activity at 50 µM: 50 uM of the test compound. The procedure, abridged:
as §1

The mark [5] stands for this setting: Table VII, read-out: PP2C Dose Curves PYL2 (IC50).
Setting [6] is: Table VII, read-out: PP2C Dose Curves PYL5 (IC50).
Where [7] appears, read: Table VII, read-out: PP2C Dose Curves PYL3 (IC50).
The mark [8] stands for this setting: Table XII-B, calculated from dose curves, read-out: PP2C Activity (IC50 in uM) PYL2.
[9] abbreviates: Table XII-B, calculated from dose curves, read-out: PP2C Activity (IC50 in uM) PYL5.
Setting [10] is: Table XII-B, calculated from dose curves, read-out: PP2C Activity (IC50 in uM) PYL3.
The mark [11] stands for this setting: Germination Effects III, tested at 1, 5, 10, 25 and 50 uM, lowest concentration inhibiting hypocotyl growth, — = none, read-out: Growth Inhibition.
Setting [12] is: Germination Effects III, tested at 1, 5, 10, 25 and 50 uM, lowest inhibiting concentration, — = none, read-out: Germination Inhibition.

Consider `CCC(CC)(C(=O)NS(=O)(=O)Cc1ccc([N+](=O)[O-])cc1)c1ccccc1` [Compound 19], for which, in test [1] (Table VIII, tested at 10 or 50 μM, ABA at 1 μM, lowest inhibiting concentration, − = none, read-out: Germination Inhibition), the minimal effective concentration amounted to 10 µM. The “Germination Inhibition” value in test [1] (Germination Inhibition II, tested at 10 and 50 uM, lowest of the two concentrations that inhibited, − = none) is 10 µM. Besides, the IC50 in test [2] (setting [5]), in test [3] (setting [6]) and in test [4] (setting [7]) was more than 50 µM in each case. In addition, the remaining activity at 25 µM in test [3] came to 85%.

Consider `N#Cc1ccc(CS(=O)(=O)NC(=O)C2(c3ccc(Br)cc3)CC2)cc1` [Compound 30], for which the minimal effective concentration in test [1] (Table VIII, tested at 10 or 50 μM, lowest inhibiting concentration, − = none, read-out: Hypocotyl Growth Inhibition) came to 50 µM. Also, the “Hypocotyl Growth Inhibition” value in test [1] (Germination Inhibition II, tested at 10 and 50 uM, lowest concentration that inhibited hypocotyl growth in wells where seeds germinated, − = none) was 50 µM. Moreover, the results for the IC50 in test [2] (setting [5]), in test [3] (setting [6]) and in test [4] (setting [7]) were more than 50 µM, 0.86 µM and more than 50 µM, respectively. Besides, the remaining activity at 25 µM in test [3] stood at 12%. Further, the “PYL5 agonist potency and selectivity” value in test [3] was “potent and relatively selective PYL5 agonists”.

Consider `N#Cc1ccc(CS(=O)(=O)NC(=O)C2(c3cccc(C#N)c3)CC2)cc1` [Compound 50], for which the IC50 stood at 54.7 µM in test [2] (setting [5]), 0.39 µM in test [3] (setting [6]) and 20.8 µM in test [4] (setting [7]). The remaining activity at 25 µM in test [3] turned out to be 7%. Besides, the “PYL5 agonist potency and selectivity” value in test [3] is “potent and relatively selective PYL5 agonists”.

Turning to `O=C(NS(=O)(=O)Cc1ccc([N+](=O)[O-])cc1)C1(c2ccccc2)CCCCC1` [Compound 63], the remaining activity at 50 µM in test [2] is 115%; in test [3], 107%; in test [4], 127%. Moreover, the IC50 in test [2] (setting [8]), in test [3] (setting [9]) and in test [4] (setting [10]) was more than 50 µM in each case.

In the case of `O=C(NS(=O)(=O)Cc1ccc(F)cc1)C1(c2ccccc2)CCCCC1` [Compound 64], the remaining activity at 50 µM in test [2] turned out to be 107%; in test [3], 103%; in test [4] it was 97.4%. In addition, the IC50 in test [2] (setting [8]), in test [3] (setting [9]) and in test [4] (setting [10]) was more than 50 µM throughout.

On to `CC(C)COC(=O)NS(=O)(=O)Cc1ccc(C#N)cc1` [Compound 65, 2-Methylpropyl N-[(4-cyanophenyl)methanesulfonyl]carbamate], for which the minimal effective concentration in test [1] (setting [11]) was 50 µM. Moreover, the remaining activity at 50 µM is 95.2% in test [2], 23.6% in test [3] and 92.9% in test [4]. Further, the IC50 in test [2] (setting [8]) is more than 50 µM; in test [3] (setting [9]) it was 14.2 µM; in test [4] (setting [10]) it was more than 50 µM.

With `CC1CCC(C(=O)NS(=O)(=O)Cc2ccc(C#N)cc2)(c2ccc(F)cc2)CC1` (centres unmarked) [Compound 67, N-[(4-Cyanophenyl)methanesulfonyl]-1-(4-fluorophenyl)-4-methylcyclohexane-1-carboxamide], the minimal effective concentration amounted to 10 µM in test [1] (setting [11]) and 25 µM in test [1] (setting [12]). For the same compound, the remaining activity at 50 µM in test [2] was determined as 93%; in test [3], 43%; in test [4], 101%. In addition, the figures for the IC50 in test [2] (setting [8]), in test [3] (setting [9]) and in test [4] (setting [10]) were more than 50 µM, 25.3 µM and more than 50 µM, respectively.

For `CC1(C)CCC(C(=O)NS(=O)(=O)Cc2ccc(C#N)cc2)(c2ccc(F)cc2)CC1` [Compound 68, N-[(4-Cyanophenyl)methanesulfonyl]-1-(4-fluorophenyl)-4,4-dimethylcyclohexane-1-carboxamide], the minimal effective concentration in test [1] (setting [11]) was 10 µM; in test [1] (setting [12]), 25 µM. In addition, the figures for the remaining activity at 50 µM in test [2], in test [3] and in test [4] were 94.8%, 103% and 98.3%, respectively. Moreover, the IC50 in test [2] (setting [8]), in test [3] (setting [9]) and in test [4] (setting [10]) was more than 50 µM throughout.

In the case of `N#Cc1ccc(CS(=O)(=O)NC(=O)C2(c3ccccc3)CCCCC2)cc1` [Compound 69, N-[(4-Cyanophenyl)methanesulfonyl]-1-phenylcyclohexane-1-carboxamide], the minimal effective concentration in test [1] (setting [11]) came to 1 µM; in test [1] (setting [12]), 5 µM. The figures for the remaining activity at 50 µM in test [2], in test [3] and in test [4] were 96.2%, 119% and 103%, respectively. For the same compound, the IC50 in test [2] (setting [8]), in test [3] (setting [9]) and in test [4] (setting [10]) was more than 50 µM in each case.

Take `N#Cc1ccc(CS(=O)(=O)NC(=O)C(c2ccccc2)c2ccccc2)cc1` [Compound 71, N-[(4-Cyanophenyl)methanesulfonyl]-2,2-diphenylacetamide]: the remaining activity at 50 µM in test [2], in test [3] and in test [4] was 102% each time. In addition, the IC50 in test [2] (setting [8]), in test [3] (setting [9]) and in test [4] (setting [10]) was more than 50 µM each time.

Take `N#Cc1ccc(CS(=O)(=O)NC(=O)C(c2ccc(F)cc2)c2ccc(F)cc2)cc1` [Compound 72, N-[(4-Cyanophenyl)methanesulfonyl]-2,2-bis(4-fluorophenyl)acetamide]: the remaining activity at 50 µM in test [2] is 100%; in test [3], 102%; in test [4], 100%. Moreover, the IC50 in test [2] (setting [8]), in test [3] (setting [9]) and in test [4] (setting [10]) was more than 50 µM each time.

In the case of `N#Cc1ccc(CS(=O)(=O)NC(=O)C(C2CCCCC2)C2CCCCC2)cc1` [Compound 73, N-[(4-Cyanophenyl)methanesulfonyl]-2,2-cyclohexylacetamide], the remaining activity at 50 µM in test [2] stood at 93.8%; in test [3] it was 110%; in test [4], 92.7%. Further, the IC50 in test [2] (setting [8]), in test [3] (setting [9]) and in test [4] (setting [10]) was more than 50 µM each time.

Take `N#Cc1ccc(CS(=O)(=O)NC(=O)C2(c3cccs3)CCCCC2)cc1` [Compound 75, N-[(4-Cyanophenyl)methanesulfonyl]-1-(thiophen-2-yl)cyclohexane-1-carboxamide]: the minimal effective concentration in test [1] (setting [11]) and in test [1] (setting [12]) was 5 µM throughout. Further, the remaining activity at 50 µM in test [2] is 89.5%; in test [3] it was 81.8%; in test [4], 95.4%. In addition, the IC50 in test [2] (setting [8]), in test [3] (setting [9]) and in test [4] (setting [10]) was more than 50 µM each time.

Regarding `N#Cc1ccc(CS(=O)(=O)NC(=O)C2(c3ccsc3)CCCCC2)cc1` [Compound 78, N-[(4-Cyanophenyl)methanesulfonyl]-1-(thiophen-3-yl)cyclohexane-1-carboxamide], the minimal effective concentration in test [1] (setting [11]) and in test [1] (setting [12]) was 2.5 µM in each case. Also, the remaining activity at 50 µM was 81.2% in test [2], 68.5% in test [3] and 103% in test [4]. Besides, the IC50 in test [2] (setting [8]), in test [3] (setting [9]) and in test [4] (setting [10]) was more than 50 µM throughout.
